# Data: US4701459A, “7-amino-1,3-dihydro-2H-imidazo[4,5-b]quinolin 2-ones and method for inhibiting phosphodiesterase and blood platelet aggregation” (Bristol-Myers Company, priority 1986, dated 1987)
# Read-outs that look alike come from different tables or passages of the source.
# Legend:
# [1] = test system: platelet rich plasma (ADP and collagen-induced platelet aggregation); assay: In Vitro Inhibition of Platelet Aggregation (aggregometer method of Born, ADP- or collagen-induced); assay type: cell-based; details: Oryctolagus cuniculus, rabbit PRP
# Excerpt: In Vitro Inhibition of Platelet Aggregation
# The aggregometer method of Born (1), as modified by Mustard, et al. (2) was used to assess the in vitro activity of the various compounds as to inhibition of adenosine diphosphate (ADP) and collagen-induced platelet aggregation. Platelet rich plasma (PRP) was separated by centrifugation from citrated (3.8 percent) rabbit blood. […] The various compounds tested were dissovled in dimethylsulfoxide (DMSO) so that 5 mcl added to the platelet rich plasma would yield the desired test concentration. Vehicle control trials were done and compared with aggregation induced in platelet rich plasma containing various concentrations of the test compounds. Dose response curves were obtained and Effective Concentration (EC50) values calculated.
# [2] = test system: cAMP phosphodiesterase (human platelets); assay: Inhibition of Cyclic AMP Phosphodiesterase; assay type: biochemical; details: PDE from human platelets
# Protocol: Inhibition of Cyclic AMP Phosphodiesterase
# This assay is carried out essentially as described by Thompson, et al., Methods in Enzymology, 38, 205-212 (1974). Briefly, tritium labeled cyclic adenosine monophosphate (cAMP) is incubated with a phosphodiesterase (PDE) enzynme obtained from human platelets which converts a portion of the cAMP to 5'AMP in culture tubes. This reaction is terminated by submerging the tubes in a boiling water bath after which they are placed on ice and an aliquot of snake venom is added to each tube. This, during a second incubation, converts the 5'AMP to adenosine. Ion exchange resin is added to bind the remaining cyclic AMP. The tubes are centrifuged to sediment the resin and a portion of the clear supernatent (which contains radioactive adenosine) is counted in a liquid scintillation counter. The cAMP phosphodiesterase inhibition activity of a test agent is determined by pre-incubating the PDE enzyme preparation with the test agent.
# [3] = test system: platelet rich plasma (induced aggregation); assay: Inhibition of Platelet Aggregation Following Oral Administration (Ex vivo method); assay type: in vivo; details: Rattus norvegicus, rats, oral (gavage), 2 hours after dosing, vs. ADP
# Protocol: Inhibition of Platelet Aggregation Following Oral Administration
# This test is sometimes referred to in the art as an Ex vivo method and was initially described by Fleming, et al., Arch. Int. Pharmacodyn. Ther., 199, 164 (1972). Briefly, the assay is essentially carried out as follows.
# Aggregometry is performed in vitro as previously described on platelet rich plasma samples obtained from rats dosed with either test compounds or the vehicle. In all cases, activity is determined 2 hours after the drug is administered orally at various doses by gavage as a suspension in […] plus a few drops of Tween 20.
# ferrets = assay: Ferret In Vivo Inotropic Activity; details: anesthetized ferrets, monitored 60 minutes; for Maximum Percentage Change, Right Ventricular Contractile Force: percent change from predose control
# Protocol: In Vivo Inotropic Activity This test is carried out in ferrets as follows. Fasted anesthetized ferrets are instrumented to study hemodynamic parameters as well as right ventricular contractile force (RVCF) using a Walton-Brodie open strain guage arch. Drugs are administered intraduodenally as solutions in DMSO (1 mL or less) and effects on myocardial contractile force and other parameters are monitored for 60 minutes after dosing. Changes in contractile force in response to drug treatment are expressed in terms of percent change from predose control.
# [4] = vs. ADP (0.5 mcg/ml), read-out: Platelet Inhibition In Vitro - Rabbit PRP EC50 vs. ADP
# [5] = vs. collagen, read-out: Platelet Inhibition In Vitro - Rabbit PRP EC50 vs. collagen
SMILES,"EC50 [1, 4] [µg/mL]","EC50 [1, 5] [µg/mL]",IC50 [2] [nM],further results
"CC(=O)Nc1ccc2nc3[nH]c(=O)[nH]c3cc2c1 [Example 4, N-(2,3-Dihydro-2-oxo-1H-imidazo[4,5-b]quinolin-7-yl)acetamide]",2,0.8,700,
"Nc1ccc2nc3[nH]c(=O)[nH]c3cc2c1 [Example 5, 7-Amino-1,3-dihydro-2H-imidazo[4,5-b]quinolin-2-one]",,0.4,,
"O=C(Nc1ccc2nc3[nH]c(=O)[nH]c3cc2c1)c1ccccc1 [Example 6, N-(2,3-Dihydro-2-oxo-1H-imidazo[4,5-b]quinolin-7-yl)benzamide]",,,200,"ED50 [3]: 5.6 mg/kg; Maximum Percentage Change, Blood Pressure (ferrets; 3 mg/kg intraduodenal): -8 ± 6%; Maximum Percentage Change, Right Ventricular Contractile Force (ferrets; 3 mg/kg intraduodenal): 9 ± 4%"
"O=c1[nH]c2cc3cc(N4CCCCC4)ccc3nc2[nH]1 [Example 7, 1,3-Dihydro-7-(1-piperidinyl)-2H-imidazo[4,5-b]quinolin-2-one]",1,,,"ED50 [3]: 20 mg/kg; Maximum Percentage Change, Blood Pressure (ferrets; 0.3 mg/kg intraduodenal): -21 ± 5%; Maximum Percentage Change, Right Ventricular Contractile Force (ferrets; 0.3 mg/kg intraduodenal): 14 ± 12%; Maximum Percentage Change, Blood Pressure (ferrets; 3 mg/kg intraduodenal): -39 ± 3%; Maximum Percentage Change, Right Ventricular Contractile Force (ferrets; 3 mg/kg intraduodenal): 22 ± 8%"
"O=c1[nH]c2cc3cc(N4CCCC4)ccc3nc2[nH]1 [Example 8, 1,3-Dihydro-7-(1-pyrrolidinyl)-2H-imidazo-[4,5-b]quinolin-2-one]",,0.4,,
"CCN(CC)c1ccc2nc3[nH]c(=O)[nH]c3cc2c1 [Example 9, 7-(Diethylamino)-1,3-dihydro-2H-imidazo[4,5-b]quinolin-2-one]",0.3,,,
"O=c1[nH]c2cc3cc(N4CCOCC4)ccc3nc2[nH]1 [Example 10, 1,3-Dihydro-7-(4-morpholinyl)-2H-imidazo[4,5-b]quinolin-2-one]",0.03,0.02,20,
"COC(=O)C1CCN(c2ccc3nc4[nH]c(=O)[nH]c4cc3c2)CC1 [Example 11, Methyl 1-(2,3-Dihydro-2-oxo-1H-imidazo[4,5-b]quinolin-7-yl)-4-piperidinecarboxylate]",0.04,0.012,,
"O=C(O)C1CCN(c2ccc3nc4[nH]c(=O)[nH]c4cc3c2)CC1 [Example 12, 1-(2,3-Dihydro-2-oxo-1H-imidazo[4,5-b]quinolin-7-yl)-4-piperidinecarboxylicAcid]",3.5,3,20,
"CCOC(=O)N1CCN(c2ccc3nc4[nH]c(=O)[nH]c4cc3c2)CC1 [Example 13, Ethyl 4-(2,3-Dihydro-2-oxo-1H-imidazo[4,5-b]quinolin-7-yl)-1-piperazinecarboxylate]",,0.17,700,
"O=C(c1ccccc1)N1CCN(c2ccc3nc4[nH]c(=O)[nH]c4cc3c2)CC1 [Example 14, 1-Benzoyl-4-(2,3-dihydro-2-oxo-1H-imidazo[4,5-b]quinolin-7-yl)piperazine]",0.125,,600,
"COc1ccc(C(=O)N2CCN(c3ccc4nc5[nH]c(=O)[nH]c5cc4c3)CC2)cc1OC [Example 15, 1-(2,3-Dihydro-2-oxo-1H-imidazo[4,5-b]quinolin-7-yl)-4-(3,4-dimethoxybenzoyl)piperazine]",3,2,,
"O=c1[nH]c2cc3cc(N4CCN(c5ccccc5)CC4)ccc3nc2[nH]1 [Example 16, 1,3-Dihydro-7-(4-phenyl-1-piperazinyl)-2H-imidazo[4,5-b]quinolin-2-one]",0.12,0.025,,
"CN(C(=O)C1CCN(c2ccc3nc4[nH]c(=O)[nH]c4cc3c2)CC1)C1CCCCC1 [Example 17, N-Cyclohexyl-1-(2,3-dihydro-2-oxo-1H-imidazo[4,5-b]quinolin-7-yl)-N-methyl-4-piperidinecarboxamide]",1.5,0.75,,
"OCCN(CCO)c1nc(N2CCCCC2)c2nc(N(CCO)CCO)nc(N3CCCCC3)c2n1 [dipyridamole, reference compound]",[…],[…],,ED50 [3]: > 100 mg/kg
"Cc1[nH]c(=O)c(C#N)cc1-c1ccncc1 [milrinone, reference compound]",,,,"Maximum Percentage Change, Right Ventricular Contractile Force (ferrets; 3 mg/kg intraduodenal): 52%"
